Assay [1] concerns Human fibrosarcoma cells (HT-1080 cells). The experiment in a line: In vitro inhibitory action against ferroptosis (Erastin-induced cell death, Cell Counting Kit-8). The format is cell-based. Particulars: Erastin 3 μmol/L, 24 hours. For orientation: Formazan colour is commonly taken as a measure of viable cells.
The nature of assay [2]: In vitro radical scavenging action (DPPH method). Particulars: 30 minutes at room temperature, maximum concentration 100 μmol/L. The method, then:
Radical scavenging action was evaluated using the DPPH method in the compound of Comparative Example 1, which is a tetrahydroquinoxaline derivative, and in the tetrahydroquinoline derivative (I) or a pharmaceutically acceptable salt thereof. The DPPH method was performed using an antioxidant capacity measurement kit (Dojindo Laboratories).
A test compound was dissolved in DMSO, and the resulting solution was then mixed with an assay buffer and a DPPH solution, which are included in the kit, to a total volume of 200 μL to obtain a final concentration of 10% DMSO, and the reaction was allowed to proceed. Wells added with 100 μmol/L ferrostatin-1, a radical scavenger, were grouped as “control,” and wells added with not test compound were grouped as “background.” The test compound was serially diluted 3-fold starting from a maximum concentration of 100 μmol/L, and the diluted test compound (1.2, 3.7, 11.1, 33.3, or 100 μmol/L) was added and allowed to react at room temperature. Thirty minutes after the reaction, the absorbance at 517 nm was measured, and the average absorbance value was calculated (N=2). The radical scavenging action of the test compound (hereinafter referred to as radical scavenging rate, %) was calculated based on the equation 2 below. The EC50 value of the test compound was calculated from the radical scavenging rate. Radical scavenging rate (%)=[1−{(Average absorbance value at 517 nm measured when a test compound is added)−(Average absorbance value at 517 nm measured in the background)}/{(Average absorbance value at 517 nm measured in the control)−(Average absorbance value at 517 nm measured in the background)}]×100 Equation 2
A note “no detection of radical scavenging action (N.D.),” is given to compounds with a EC50 of >100 μmol/L.
In general terms: DPPH is a stable violet radical that fades when it is reduced.

[3] abbreviates: evaluation concentration 30 μmol/L.
Setting [4] is: evaluation concentration 50 μmol/L.
Setting [5] is: evaluation concentration 10 μmol/L.

These results are taken from patent US12570639B2, “Tetrahydroquinoline derivative and medicinal use thereof” (Toray Industries, Inc., priority 2020, dated 2026).

In general, EC50 refers to the concentration that produces a half-maximal response.

Where a name gives a salt, the structure may show the parent alone.

Regarding `Clc1ccc2c(c1)NC(c1ccccc1)CC2` (centres unmarked) [Example 69, 7-chloro-2-phenyl-1,2,3,4-tetrahydroquinoline], the “Ferroptosis inhibition rate (%)” value in assay [1] (setting [3]) came out at 106.4%. Also, the concentration for a half-maximal effect (EC50) in assay [2] was over 100 µM.

`FC(F)(F)Oc1ccc2c(c1)CCC(c1ccccc1)N2` (centres unmarked) [Example 81, 2-phenyl-6-(trifluoromethoxy)-1,2,3,4-tetrahydroquinoline]: the “Ferroptosis inhibition rate (%)” value in assay [1] (setting [4]) came out at 103.9%. For the same compound, in assay [2], the EC50 is over 100 µM.

Consider `Fc1ccc2c(c1)CCC(c1ccccc1)N2` (centres unmarked) [Example 82, 6-fluoro-2-phenyl-1,2,3,4-tetrahydroquinoline], for which the “Ferroptosis inhibition rate (%)” value in assay [1] (setting [3]) is reported as 112.6%. The concentration for a half-maximal effect (EC50) in assay [2] was over 100 µM.

As for `Clc1ccc2c(c1)CCC(c1ccccc1)N2` (centres unmarked) [Example 83, 6-chloro-2-phenyl-1,2,3,4-tetrahydroquinoline], the “Ferroptosis inhibition rate (%)” value in assay [1] (setting [4]) is on record as 103.8%. The compound further gave a half-maximal effective concentration (EC50) in assay [2] of over 100 µM.

`Fc1cc2c(cc1F)NC(c1ccccc1)CC2` (centres unmarked) [Example 85, 6,7-difluoro-2-phenyl-1,2,3,4-tetrahydroquinoline]: the “Ferroptosis inhibition rate (%)” value in assay [1] (setting [4]) turned out to be 94.94%. The same compound yielded an EC50 in assay [2] of over 100 µM.

`Cc1ccc2c(c1)CCC(c1ccc(C(N)=O)cc1)N2` (centres unmarked) [Example 99, 4-(6-methyl-1,2,3,4-tetrahydroquinolin-2-yl)benzamide]: the “Ferroptosis inhibition rate (%)” value in assay [1] (setting [3]) was determined as 98.85%. This compound gave an EC50 in assay [2] of over 100 µM.

On to `Cc1ccc2c(c1)NC(c1ccc(S(N)(=O)=O)cc1)CC2` (centres unmarked) [Example 105, 4-(7-methyl-1,2,3,4-tetrahydroquinolin-2-yl)benzenesulfonamide], for which the “Ferroptosis inhibition rate (%)” value in assay [1] (setting [3]) came to 99.03%. For the same compound, in assay [2], the EC50 was over 100 µM.

`Cc1ccc2c(c1)NC(c1ccc(C(N)=O)cc1)CC2` (centres unmarked) [Example 106, 4-(7-methyl-1,2,3,4-tetrahydroquinolin-2-yl)benzamide]: in assay [1] (setting [3]), the “Ferroptosis inhibition rate (%)” value is on record as 111.7%. The same compound had a half-maximal effective concentration (EC50) in assay [2] of over 100 µM.

Regarding `NS(=O)(=O)c1ccc(C2CCc3cc(F)ccc3N2)cc1` (centres unmarked) [Example 107, 4-(6-fluoro-1,2,3,4-tetrahydroquinolin-2-yl)benzenesulfonamide], in assay [1] (setting [3]), the “Ferroptosis inhibition rate (%)” value stood at 100.8%. The concentration giving a half-maximal response (EC50) in assay [2] is over 100 µM.

`NS(=O)(=O)c1ccc(C2CCc3cc(F)ccc3N2)cc1` (centres unmarked) [Example 109, 4-(6-fluoro-1,2,3,4-tetrahydro-quinolin-2-yl)benzenesulfonamide]: in assay [1] (setting [5]), the “Ferroptosis inhibition rate (%)” value turned out to be 83.63%. The compound also returned an EC50 in assay [2] of over 100 µM.

`Cc1cccc2c1CCC(c1ccc(S(N)(=O)=O)cc1)N2` (centres unmarked) [Example 112, 4-(5-methyl-1,2,3,4-tetrahydroquinolin-2-yl)benzenesulfonamide]: the “Ferroptosis inhibition rate (%)” value in assay [1] (setting [3]) worked out at 105.5%. In addition, the EC50 in assay [2] is over 100 µM.

Regarding `NS(=O)(=O)c1ccc(C2CCc3cc(Cl)ccc3N2)cc1` (centres unmarked) [Example 115, 4-(6-chloro-1,2,3,4-tetrahydroquinolin-2-yl)benzenesulfonamide], the “Ferroptosis inhibition rate (%)” value in assay [1] (setting [3]) worked out at 105.8%. The same compound registered a half-maximal effective concentration (EC50) in assay [2] of over 100 µM.

`NS(=O)(=O)c1ccc(C2CCc3cc(Cl)ccc3N2)cc1` (centres unmarked) [Example 116, 4-(6-chloro-1,2,3,4-tetrahydro-quinolin-2-yl)benzenesulfonamide]: the “Ferroptosis inhibition rate (%)” value in assay [1] (setting [5]) is 80.69%. Further, in assay [2], the EC50 is over 100 µM.

As to `NS(=O)(=O)c1ccc(C2CCc3ccc(F)cc3N2)cc1` (centres unmarked) [Example 118, 4-(7-fluoro-1,2,3,4-tetrahydroquinolin-2-yl)benzenesulfonamide], in assay [1] (setting [3]), the “Ferroptosis inhibition rate (%)” value is 95.28%. The same compound displayed an EC50 in assay [2] of over 100 µM.

For the compound `Cc1ccc2c(c1)CCC(c1ccc(S(N)(=O)=O)cc1)N2` (centres unmarked) [Example 120, 4-(6-methyl-1,2,3,4-tetrahydroquinolin-2-yl)benzenesulfonamide], the “Ferroptosis inhibition rate (%)” value in assay [1] (setting [5]) is listed as 87.34%. Moreover, the EC50 in assay [2] was over 100 µM.

`NC(=O)c1ccc(C2CCc3cc(Cl)ccc3N2)cc1` (centres unmarked) [Example 121, 4-(6-chloro-1,2,3,4-tetrahydroquinolin-2-yl)benzamide]: the “Ferroptosis inhibition rate (%)” value in assay [1] (setting [5]) is on record as 92.10%. In assay [2], this compound had a half-maximal effective concentration (EC50) of over 100 µM.

For the compound `NC(=O)c1ccc(C2CCc3cc(Cl)ccc3N2)cc1` (centres unmarked) [Example 122, 4-(6-chloro-1,2,3,4-tetrahydroquinolin-2-yl)benzamide], the “Ferroptosis inhibition rate (%)” value in assay [1] (setting [5]) was determined as 97.59%. For the same compound, the EC50 in assay [2] was over 100 µM.

For `NC(=O)c1ccc(C2CCc3cc(Cl)ccc3N2)cc1` (centres unmarked) [Example 131, 4-(6-chloro-1,2,3,4-tetrahydroquinolin-2-yl)benzamide], in assay [1] (setting [3]), the “Ferroptosis inhibition rate (%)” value turned out to be 102.5%. Moreover, the EC50 in assay [2] was over 100 µM.

For `NC(=O)c1ccc(C2CCc3cc(F)ccc3N2)cc1` (centres unmarked) [Example 132, 4-(6-fluoro-1,2,3,4-tetrahydroquinolin-2-yl)benzamide], in assay [1] (setting [3]), the “Ferroptosis inhibition rate (%)” value stood at 105.6%. In assay [2], the concentration for a half-maximal effect (EC50) was over 100 µM.

For the compound `NS(=O)(=O)c1ccc(C2CCc3c(Cl)cccc3N2)cc1` (centres unmarked) [Example 134, 4-(5-chloro-1,2,3,4-tetrahydroquinolin-2-yl)benzenesulfonamide], the “Ferroptosis inhibition rate (%)” value in assay [1] (setting [3]) worked out at 77.77%. Also, the concentration giving a half-maximal response (EC50) in assay [2] is over 100 µM.

Regarding `NS(=O)(=O)c1ccc(C2CCc3c(F)cccc3N2)cc1` (centres unmarked) [Example 135, 4-(5-fluoro-1,2,3,4-tetrahydroquinolin-2-yl)benzenesulfonamide], in assay [1] (setting [3]), the “Ferroptosis inhibition rate (%)” value turned out to be 62.32%. The 50% effective concentration (EC50) in assay [2] is over 100 µM.

`CS(=O)(=O)Nc1ccc(C2CCc3ccccc3N2)cc1` (centres unmarked) [Example 136, N-(4-(1,2,3,4-tetrahydroquinolin-2-yl)phenyl)methanesulfonamide]: the “Ferroptosis inhibition rate (%)” value in assay [1] (setting [3]) worked out at 75.50%. The 50% effective concentration (EC50) in assay [2] was over 100 µM.

For the compound `NC(=O)c1ccc(C2CCc3c(F)cccc3N2)cc1` (centres unmarked) [Example 137, 4-(5-fluoro-1,2,3,4-tetrahydroquinolin-2-yl)benzamide], the “Ferroptosis inhibition rate (%)” value in assay [1] (setting [3]) is 93.06%. The compound also returned a concentration giving a half-maximal response (EC50) in assay [2] of over 100 µM.

As to `NC(=O)c1ccc(C2CCc3c(Cl)cccc3N2)cc1` (centres unmarked) [Example 138, 4-(5-chloro-1,2,3,4-tetrahydroquinolin-2-yl)benzamide], the “Ferroptosis inhibition rate (%)” value in assay [1] (setting [3]) was determined as 65.15%. In assay [2], the half-maximal effective concentration (EC50) was over 100 µM.

As to `O=C(Cc1ccc2c(c1)CCC(c1ccccc1)N2)N1CC(O)C1` (centres unmarked) [Example 143, 1-(3-hydroxyazetidin-1-yl)-2-(2-phenyl-1,2,3,4-tetrahydroquinolin-6-yl)ethan-1-one hydrochloride], the “Ferroptosis inhibition rate (%)” value in assay [1] (evaluation concentration 30 μmol/L, hydrochloride) is reported as 93.97%. This compound also gave an EC50 in assay [2] of over 100 µM.

Consider `O=C(Cc1ccc2c(c1)CCC(c1ccccc1)N2)N1CCOCC1` (centres unmarked) [Example 145, 1-morpholino-2-(2-phenyl-1,2,3,4-tetrahydroquinolin-6-yl)ethan-1-one], for which the “Ferroptosis inhibition rate (%)” value in assay [1] (setting [3]) was 102.0%. Besides, the concentration giving a half-maximal response (EC50) in assay [2] is over 100 µM.

Consider `CC1(C)CN(C(=O)Cc2ccc3c(c2)CCC(c2ccccc2)N3)C1` (centres unmarked) [Example 146, 1-(3,3-dimethylazetidin-1-yl)-2-(2-phenyl-1,2,3,4-tetrahy-dro-quin-olin-6-yl)ethan-1-one], for which the “Ferroptosis inhibition rate (%)” value in assay [1] (setting [3]) was 112.8%. This compound also returned a half-maximal effective concentration (EC50) in assay [2] of over 100 µM.

On to `COC1CN(C(=O)Cc2ccc3c(c2)CCC(c2ccccc2)N3)C1` (centres unmarked) [Example 147, 1-(3-methoxyazetidin-1-yl)-2-(2-phenyl-1,2,3,4-tetrahydroquinolin-6-yl)ethan-1-one], for which the “Ferroptosis inhibition rate (%)” value in assay [1] (setting [3]) is reported as 93.00%. In addition, the EC50 in assay [2] was over 100 µM.
